Experimental data taken from patent US7419669B2, “Peptide epitopes common to antigens of the same multigene family” (Institut Gustave Roussy, priority 2002, dated 2008).
Where no end group is shown, it is not given here.

Columns and labels:
[1] = target: T1, HLA-A*0201/peptide complexes (Homo sapiens, UniProt P04439, D140Y/D185E/D98H/E176V/E277Q/G131W/G231S/I119V/I121R/I166T/I218V/L300P/L318F/N151K/N90K/P208A/P217A/Q86G/Q94H/R138H/R169H/T345S); assay: Stability of peptide/HLA-A*0201 complexes on T2 cells (DC50); type: binding
T1 construct: prevent the expression at their surface of newly synthesized HLA-A*0201 molecules; endogenous in cells; host or cells: human T2 cells (TAP-deficient)
Experimental: (§1) The affinity of the selected peptides for HLA-A*0201 was defined by two parameters: the relative affinity (RA); which reflects the ability of the peptides to bind to HLA-A*0201, and the rate of dissociation of the HLA-A*0201/peptide complexes (DC50), which reflects their stability. The peptides with high affinity (RA<5 and DC50>2 hours) are potentially immunogenic, unlike the peptides with low affinity (RA>5 and DC50<2 hours).
T2 cells (10^6/ml) are incubated overnight at 37° C. with 100 μM of each test peptide in serum-free RPMI 1640 medium supplemented with 100 ng/ml of human β2-microglobulin. Next, they are washed four times in order to remove the free peptides, incubated with Brefeldin A (SIGMA; 10 μg/ml) for one hour in order to prevent the expression at their surface of newly synthesized HLA-A*0201 molecules, washed and incubated at 37° C. for 0, 2, 4, 6 or 8 hours. For each incubation time, the cells are then labeled, as indicated above, with the BB7.2 antibody, and analyzed by flow cytometry in order to evaluate the amount of peptide/HLA-A*0201 complex present at their surface. This amount is evaluated by means of the formula: (mean fluorescence of the T2 cells preincubated with the peptide−mean fluorescence of the T2 cells treated under similar conditions in the absence of peptide). […]

[2] = test system: HHD transgenic mice; assay: Induction of specific CTLs in HHD transgenic mice by immunization with variant MAGE-A peptides; 51Cr cytotoxicity on peptide-loaded RMAS-HHD targets; type: in vivo; settings: for recognition of RMAS-HHD targets loaded with the native peptide by CTLs induced with the corresponding variant: native peptide loaded on targets
Experimental: The immunogenicity of the variant peptides p174Y1V10, p262L2 and p248V9 was evaluated by generation of CTLs on HHD transgenic mice (PASCOLO et al., J. Exp. Med., 185, 2043, 1997). These mice are β2m−/−, D^b−/− and express an HLA-A*0201 single chain made up of the α1 and α2 domains of HLA-A*0201 and the α3 and intracellular domains of D^b, linked via its N-terminal to the C-terminal of human β2-microglobulin, via a peptide of 15 amino acids.
The HHD mice are given a subcutaneous injection at the base of the tail with 100 μg of each variant peptide to be tested, emulsified in Freund's incomplete adjuvant, in the presence of 140 μg of a T-helper epitope derived from the HBV “core” antigen (128-140, sequence […]).
After 11 days, spleen cells taken from the mice (5×10^7 cells in 10 ml) are stimulated in vitro with the test peptide (10 μM). On the 6th day of culture, the populations which respond are tested in order to determine a specific cytotoxicity. The cells which respond are restimulated in vitro at one-week intervals with 2×10^7 irradiated (3000 rads) HHD spleen cells and 1 to 0.1 μM of peptide in the presence of 50 IU/ml of recombinant IL2 (Proleukin, Chiron Corp).
Cytotoxicity assays are carried out 6 days after the final stimulation.
RMAS-HHD cells are used as targets to study the cytotoxicity. The cells are obtained by transfection of murine RMAS cells with the HHD construct as described by PASCOLO et al. (J. Exp. Med., 185, 2043, 1997).
These target cells are labeled with 100 μCi of ^51Cr for 90 minutes, and then washed three times and plated out in round-bottomed 96-well plates (3×10^3 cells/well in 100 μl of RPMI 1640+3% of fetal calf serum). They are loaded with various concentrations of test peptide (variant, native peptide, or irrelevant control peptide), at 37° C. for 90 minutes.
Next, 100 μl of the effector cells (effector cell/target cell ratio=40/1) are added to the wells and the plates are incubated at 37° C. for 4 hours. After incubation, 100 μl of supernatant are collected and the radioactivity is measured in a γ-counter.
The percentage of specific lysis is calculated by means of the formula: [(experimental ^51Cr release−spontaneous ^51Cr release)/(maximum ^51Cr release−spontaneous ^51Cr release)]×100. In all the experiments, the spontaneous release is less than 20% of the maximum release induced with 3N HCl.

[3] = target: T2, HLA-A*0201 (Homo sapiens, UniProt P04439, D140Y/D185E/D98H/E176V/E277Q/G131W/G231S/I119V/I121R/I166T/I218V/L300P/L318F/N151K/N90K/P208A/P217A/Q86G/Q94H/R138H/R169H/T345S); assay: Relative affinity (RA) of peptides for HLA-A*0201 on T2 cells, flow cytometry with BB7.2; type: binding; settings: low affinity = RA>5 and DC50<2 hours
T2 construct: prevent the expression at their surface of newly synthesized HLA-A*0201 molecules; endogenous in cells; host or cells: human T2 cells (TAP-deficient)
Experimental: as §1
Human T2 cells (FIRAT et al., Eur. J. Immunol., 29, 3112, 1999) (3×10^5 cells/ml), which are deficient in TAP transporters, are incubated at 37° C. for 16 hours with various concentrations (100 μM, 10 μM, 1 μM, 0.1 μM) of each test peptide in serum-free RPMI 1640 medium supplemented with 100 ng/ml of human β2-microglobulin. Next, they are washed twice and labeled with the monoclonal antibody BB7.2 (PARHAM et al., Hum. Immunol., 3, 4, 277-299, 1981) which is specific for the HLA-A*0201 molecule, and then with a goat anti-mouse Ig antibody coupled to fluorescein isothiocyanate (FITC).
The cells are then analyzed by flow cytometry. For each concentration of peptide, the specific HLA-A*0201 fluorescence is calculated as a percentage of the fluorescence obtained with 100 μM of a reference peptide (HIVpol 589; […] (SEQ ID No: 1)). The relative affinity (RA) is defined as the ratio of the concentration of each peptide that induces 20% of the fluorescence obtained with 100 μM of the reference peptide, to the concentration of the reference peptide that induces 20% of the fluorescence obtained with 100 μM of said reference peptide. The lower the relative affinity, the stronger the binding of the peptide to HLA-A*0201. The mean RA for each peptide is determined from at least three independent experiments. In all the experiments, 20% of the maximum fluorescence was obtained for 1 to 3 μM of the reference peptide.
The relative affinity (RA) of the selected variant peptides for HLA-A*0201 was measured as described in example 1.

[4] = test system: CD8+ cells from normal donors; assay: Induction of specific human CTLs in vitro from PBMCs of normal donors with p248V9, intracellular IFNγ production; type: cell-based; settings: intracellular IFNγ production
Experimental: The ability of p248V9 to induce CTLs in vitro using peripheral blood mononuclear cells (PBMCs) from normal donors was tested as follows.
The PBMCs are obtained, from blood samples taken by leukocytapheresis on normal donors, after centrifugation at 2000 rpm for 20 min on a Ficoll/Hypaque (Amersham) gradient. After 3 washes in 0.9% NaCl, they are resuspended in complete medium (RPMI 1640 supplemented with 10% of heat-inactivated human AB serum, 40 μg/ml of gentamicin (Panpharma) and […] of L-glutamine (Gibco)), and incubated at 37° C. for 2 hours. After incubation, the non-adherent cells are removed. The adherent cells are differentiated into dendritic cells by culturing in a Teflon bag in a proportion of 3×10^6 cells/ml in complete medium supplemented with 500 IU/ml of GM-CSF (R & D Systems) and 500 IU/ml of IL-4 (R & D Systems). On the seventh day, maturing agents (100 ng/ml of polyI:C and 2 μg/ml of anti-CD40 antibody) are added to the culture. After 24 hours, the mature dendritic cells are loaded with the peptide p248V9 by incubation for 2 hours with 10 μM of peptide in the presence of 5 μg/ml of β2-microglobulin, and then irradiated at 3500 rads; they are then washed in order to remove the free peptide. CD8+ cells are isolated from the non-adherent cells by means of microbeads coupled to an anti-CD8 antibody (Miltenyi Biotec).
2×10^5 CD8+ cells are stimulated with 2×10^4 dendritic cells loaded with the peptide, in complete medium supplemented with 1000 IU/ml of IL-6 and 5 IU/ml of IL-12 in a final volume of 100 μl/well in a 96-well plate. From the seventh day, the cultures are stimulated in vitro each week with the dendritic cells loaded with the peptide, in the presence of 20 IU/ml of IL-2 and 10 ng/ml of IL-7. After the third restimulation, the CD8+ cells are collected and stimulated with EBV-transformed HLA-A*0201 allogenic B cells, in a 1/2 ratio, in the presence of 10 μM of peptide, for 16 hours.
The IFNγ-producing CD8+ cells are purified using a commercial kit (IFNγ secretion assay-cell enrichment and detection kit, Miltenyi Biotech). The cells thus purified are cultured for one week in complete medium supplemented with 20 IU/ml of IL-2 and 10 ng/ml of IL-7.
The response of these CD8+ cells to T2 cells loaded with one of the peptides p248V9, p248G9 or p248D9, or with a irrelevant peptide (HIVgag76), or to HLA-A*0201+MAGE-A+ tumor cells (M44 and M113) or HLA-A*0201+MAGE-A^− tumor cells (Caco-2), is evaluated by assaying the intracellular IFNγ production.
The CD8+ cells are incubated with the cells of the tumor line tested, in the presence of 20 μg/ml of Brefeldine-A (Sigma). […]
The cells are then analyzed by flow cytometry (FACSCalibur™ (Becton Dickinson) and CellQuest™ software).

Sequence	stability of the complex formed with HLA-A*0201 (in words) [1]	CTL response generated by immunization with the variant peptide ([2]; HHD mice, 100 μg s.c. in Freund's incomplete adjuvant, RMAS-HHD targets, effector/target 40/1)	affinity for HLA-A*0201 (in words) [3]	recognition of RMAS-HHD targets loaded with the native peptide by CTLs induced with the corresponding variant [2]	response of p248V9-induced human CD8+ cells to T2 cells loaded with the peptide [4]	DC50 (time required for loss of 50% of HLA-A*0201/peptide complexes) ([1]; T2 cells loaded with 100 μM peptide, 37° C., 0-8 hours) [h]
YLGLSYDGLV (not fully specified) [p174Y1V10]	appears to be insufficient	not capable of generating a CTL response	–	–	–	–
YLEYRQVPD (listed as Homo sapiens) [p248D9]	–	–	low affinity	also against the two native peptides	a response of the CD8+ cells	–
YLEYRQVPG (listed as Homo sapiens) [p248G9]	–	–	low affinity	also against the two native peptides	a response of the CD8+ cells	–
YEFLWGPRA (listed as Homo sapiens) [p262]	–	–	low affinity	not	–	<2
